Assay results: patent publication US6703415B2, “Inhibitors of matrix metallaproteinases” (Wayne State University, priority 2000, dated 2004)
Read-outs that look alike come from different tables or passages of the source.

Key:
MMP-2 [1] = target: T1, MMP-2 (Homo sapiens, UniProt P08253); experiment: biochemical
T1 sequence (P08253 110-660): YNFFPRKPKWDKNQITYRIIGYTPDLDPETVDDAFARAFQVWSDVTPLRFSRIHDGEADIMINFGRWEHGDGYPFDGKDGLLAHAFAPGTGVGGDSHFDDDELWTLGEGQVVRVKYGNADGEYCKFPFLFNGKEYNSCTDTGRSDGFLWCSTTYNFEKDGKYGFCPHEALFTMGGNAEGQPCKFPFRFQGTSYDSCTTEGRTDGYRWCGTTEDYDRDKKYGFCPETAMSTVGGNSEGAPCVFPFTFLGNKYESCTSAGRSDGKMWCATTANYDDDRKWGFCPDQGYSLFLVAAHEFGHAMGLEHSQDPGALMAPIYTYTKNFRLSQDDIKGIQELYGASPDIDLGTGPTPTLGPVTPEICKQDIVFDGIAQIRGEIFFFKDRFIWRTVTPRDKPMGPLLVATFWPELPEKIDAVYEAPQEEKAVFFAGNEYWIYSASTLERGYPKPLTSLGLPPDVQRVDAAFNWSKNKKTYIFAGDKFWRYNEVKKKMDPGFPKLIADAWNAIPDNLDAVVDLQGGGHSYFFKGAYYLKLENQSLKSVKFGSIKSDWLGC

MMP-9 [2] = target: T2, MMP-9 (Homo sapiens, UniProt P14780); experiment: biochemical
MMP-3 = target: T3, MMP-3 (Homo sapiens, UniProt P08254); experiment: Fluorescence enzymatic activity assay / kinetic analyses, stromelysin 1 (MMP-3); assay type: biochemical; conditions: NI = not inhibiting even at 130-330 μM
T3 construct: gift of Dr. Paul Cannon, Center for Bone and Joint Research, Palo Alto, Calif

MMP-7 = target: T4, MMP-7 (Homo sapiens, UniProt P09237); experiment: Fluorescence enzymatic activity assay / kinetic analyses, MMP-7; assay type: biochemical; conditions: NI = not inhibiting even at 130-330 μM
T4 sequence (P09237 95-267): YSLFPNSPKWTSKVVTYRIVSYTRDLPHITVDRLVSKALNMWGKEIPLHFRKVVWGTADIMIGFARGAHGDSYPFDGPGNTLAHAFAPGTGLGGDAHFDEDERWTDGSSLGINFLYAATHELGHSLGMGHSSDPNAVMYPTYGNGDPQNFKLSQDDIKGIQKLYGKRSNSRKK
Description: The enzymatic activity of MMP-2, MMP-9, and MMP-7 was monitored with the fluorescence quenched substrate MOCAcPLGLA2pr(Dnp)-AR-NH2. Fluorescence was measured with a Photon Technology International (PTI) spectrofluorometer interfaced to a Pentium computer, equipped with the RatioMaster™ and FeliX™ hardware and software, respectively. The cuvette compartment was thermostated at 25.0° C. […] Fluorescence measurements were taken every 4 s. Less than 10% hydrolysis of the fluorogenic substrate was monitored, as described by Knight.

MMP-1 = target: T5, MMP-1 (Homo sapiens, UniProt P03956); experiment: Kinetic analyses, MMP-1; assay type: biochemical; conditions: NI = not inhibiting even at 130-330 μM
T5 sequence (P03956 100-469): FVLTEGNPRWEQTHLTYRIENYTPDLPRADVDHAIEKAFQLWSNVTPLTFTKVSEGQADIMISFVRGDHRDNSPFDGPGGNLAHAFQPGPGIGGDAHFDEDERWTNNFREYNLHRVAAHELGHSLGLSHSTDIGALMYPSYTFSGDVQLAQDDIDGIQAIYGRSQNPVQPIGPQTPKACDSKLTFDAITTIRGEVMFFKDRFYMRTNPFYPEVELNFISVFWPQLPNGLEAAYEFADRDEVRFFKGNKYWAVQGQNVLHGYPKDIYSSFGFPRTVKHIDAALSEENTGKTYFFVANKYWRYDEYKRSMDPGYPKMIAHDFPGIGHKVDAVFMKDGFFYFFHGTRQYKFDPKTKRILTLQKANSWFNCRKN
Description: The progress curves were nonlinear least squares fitted to Equation 1 (Muller-Steffner, H. M., Malver, O., Hosie, L., Oppenheimer, N. J., and Schuber, F. J. Biol. Chem. 1992, 267, 9606-9611.):
Analysis for linear competitive inhibition was performed in the following manner. […] The fluorescence versus time traces were fitted by linear regression analysis using FeliX™. The initial rates were fitted to Equation 5 (Segel, I. H. in: Enzyme Kinetics, Wiley Inc., New York, 1975, pp. 104.):
The following buffers were used in experiments with enzymes: Buffer C (50 mM HEPES at pH 7.5, 150 mM NaCl, 5 mM CaCl2, 0.02% Brij-35); buffer R (50 mM HEPES at pH 7.5, 150 mM NaCl, 5 mM CaCl2, 0.01% Brij-35, and 1% v/v Me2SO) and buffer D (50 mM Tris at pH 7.5, 150 mM NaCl, 5 mM CaCl2, and 0.02% Brij-35).

MMP-2 [3] = target: T1, MMP-2; conditions: high-affinity site for TIMPs, reported earlier (Olson et al. 1997); cited from earlier work
MMP-9 [4] = target: T2, MMP-9; conditions: high-affinity site for TIMPs, reported earlier (Olson et al. 1997); cited from earlier work

T3 sequence (P08254 100-477): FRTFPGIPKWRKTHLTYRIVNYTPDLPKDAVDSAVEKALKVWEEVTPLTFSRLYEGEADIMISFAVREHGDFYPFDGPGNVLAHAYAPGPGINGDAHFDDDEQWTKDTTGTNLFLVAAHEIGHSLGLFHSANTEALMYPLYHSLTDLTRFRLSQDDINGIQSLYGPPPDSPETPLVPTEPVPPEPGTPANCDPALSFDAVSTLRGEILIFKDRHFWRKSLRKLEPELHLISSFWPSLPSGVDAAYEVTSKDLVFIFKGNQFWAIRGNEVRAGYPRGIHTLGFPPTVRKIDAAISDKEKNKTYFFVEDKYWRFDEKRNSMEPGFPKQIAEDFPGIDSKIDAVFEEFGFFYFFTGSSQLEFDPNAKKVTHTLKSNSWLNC
T2 sequence (P14780 107-707 limits assumed): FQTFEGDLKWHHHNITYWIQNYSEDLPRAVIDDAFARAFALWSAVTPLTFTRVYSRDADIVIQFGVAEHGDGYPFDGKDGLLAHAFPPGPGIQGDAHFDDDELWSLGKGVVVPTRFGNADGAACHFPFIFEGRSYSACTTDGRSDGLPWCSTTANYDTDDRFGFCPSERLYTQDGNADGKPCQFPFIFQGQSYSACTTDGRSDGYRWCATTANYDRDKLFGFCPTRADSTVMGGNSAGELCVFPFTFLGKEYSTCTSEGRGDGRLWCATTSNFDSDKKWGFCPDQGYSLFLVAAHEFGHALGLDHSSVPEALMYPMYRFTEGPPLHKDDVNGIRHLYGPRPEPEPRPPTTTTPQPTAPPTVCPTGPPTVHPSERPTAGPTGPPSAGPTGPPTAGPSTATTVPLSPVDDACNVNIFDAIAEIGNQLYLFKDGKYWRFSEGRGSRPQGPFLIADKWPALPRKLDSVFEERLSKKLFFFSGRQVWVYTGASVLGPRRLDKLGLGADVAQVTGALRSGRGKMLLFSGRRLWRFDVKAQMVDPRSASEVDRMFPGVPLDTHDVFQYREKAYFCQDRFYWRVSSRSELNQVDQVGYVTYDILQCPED

In the case of `O=S(=O)(CCC1CS1)c1ccc(Oc2ccccc2)cc1` (stereo not shown) [Compound 2, 2-(4-Phenoxyphenylsulfonyl)ethylthiirane], the Ki (MMP-2 [1]) is reported as 4.7 ± 0.7 µM, the Ki (MMP-9 [2]) is reported as 44 ± 5 µM and the Ki (MMP-3) is reported as greater than 130 µM. The Ki (MMP-7) was greater than 130 µM, the Ki (MMP-1) was greater than 130 µM and the melting point was 99 to 101 °C.

With `O=S(=O)(CCCC1CS1)c1ccc(Oc2ccccc2)cc1` (stereo not shown) [Compound 3, 3-(4-Phenoxyphenylsulfonyl)propylthiirane] the Ki (MMP-2 [1]) was 4.3 ± 0.7 µM, the Ki (MMP-9 [2]) was 181 ± 41 µM and the Ki (MMP-3) was greater than 130 µM. For the same compound, the Ki (MMP-7) was greater than 130 µM, the Ki (MMP-1) was greater than 130 µM and the melting point was 75 to 76 °C.

`O=S(=O)(CC1CO1)c1ccc(Oc2ccccc2)cc1` (stereo not shown) [Compound 4, (4-Phenoxyphenylsulfonyl)methyloxirane] showed a Ki (MMP-2 [1]; Ki) of 25 ± 2 µM, a Ki (MMP-9 [2]) of 186 ± 11 µM and a Ki (MMP-3) greater than 130 µM. The Ki (MMP-7) was greater than 130 µM, the Ki (MMP-1) was greater than 130 µM and the melting point was 50 to 51 °C.

`O=S(=O)(CCC1CO1)c1ccc(Oc2ccccc2)cc1` (stereo not shown) [Compound 5, 2-(4-Phenoxyphenylsulfonyl)ethyloxirane] gave a Ki (MMP-2 [1]; Ki) of 5.1 ± 0.5 µM, a Ki (MMP-9 [2]) of 102 ± 2 µM and a Ki (MMP-3) greater than 130 µM. The Ki (MMP-7) was greater than 130 µM, the Ki (MMP-1) was greater than 130 µM and the melting point was 75 to 77 °C.

In the case of `O=S(=O)(CCCC1CO1)c1ccc(Oc2ccccc2)cc1` (stereo not shown) [Compound 6, 3-(4-Phenoxyphenylsulfonyl)propyloxirane], the Ki (MMP-2 [1]; Ki) is reported as 10.7 ± 0.6 µM, the Ki (MMP-9 [2]) is reported as 75 ± 6 µM and the Ki (MMP-3) is reported as greater than 130 µM. It also gave a Ki (MMP-7) greater than 130 µM and a Ki (MMP-1) greater than 130 µM.

In the case of “TIMP-1: endogenous cellular protein inhibitor of MMPs (tissue inhibitor for matrix metalloproteinases)”, the Ki (MMP-2 [3]) is given as 0.029 ± 0.005 µM and the Ki (MMP-9 [4]) is given as 0.024 ± 0.004 µM.
